The structures appear in SMILES notation. Numbers after ± are expanded uncertainties.

Results on three compounds are retold here after the NIST ThermoML archive (doi:10.1016/j.jct.2006.07.004).

For series [1] the following is noted: Liquid; for viscosity / mass density: 101 kPa; for viscosity: Capillary tube (Ostwald / Ubbelohde) method; for mass density: Vibrating tube method.
Series [2] in a line: xn = mol fraction of the nth substance listed. The conditions noted are these: 101 kPa, Liquid, x2 = 0; for viscosity: Capillary tube (Ostwald / Ubbelohde) method; for mass density: Vibrating tube method.

With `CC(=O)CC(C)C` [4-methylpentan-2-one], the viscosity in series [1] (283.15 K) turned out to be 0.655 ± 0.006 mPa·s; in series [1] (293.15 K), 0.576 ± 0.005 mPa·s; in series [1] (303.15 K), 0.511 ± 0.005 mPa·s; in series [1] (313.15 K), 0.46 ± 0.004 mPa·s. In addition, the mass density worked out at 809.8 ± 0.3 kg/m3 in series [1] (283.15 K), 800.7 ± 0.3 kg/m3 in series [1] (293.15 K), 791.6 ± 0.3 kg/m3 in series [1] (303.15 K) and 782.2 ± 0.3 kg/m3 in series [1] (313.15 K). Besides, the “vapor or sublimation pressure” value in series [1] (303.15 K) is 3.89 ± 0.11 kPa.

As to `CC(=O)CC(C)C` [4-methylpentan-2-one] + ClC(Cl)Cl, the viscosity in series [2] (283.15 K) is on record as 0.655 ± 0.006 mPa·s; in series [2] (293.15 K), 0.576 ± 0.005 mPa·s; in series [2] (303.15 K) it was 0.511 ± 0.005 mPa·s; in series [2] (313.15 K) it was 0.46 ± 0.004 mPa·s. Moreover, the mass density came to 809.8 ± 0.3 kg/m3 in series [2] (283.15 K), 800.7 ± 0.3 kg/m3 in series [2] (293.15 K), 791.6 ± 0.3 kg/m3 in series [2] (303.15 K) and 782.2 ± 0.3 kg/m3 in series [2] (313.15 K).

Regarding `ClC(Cl)Cl` [trichloromethane], the viscosity in series [1] (283.15 K) was 0.629 ± 0.005 mPa·s; in series [1] (293.15 K) it was 0.573 ± 0.005 mPa·s; in series [1] (303.15 K), 0.516 ± 0.005 mPa·s; in series [1] (313.15 K), 0.468 ± 0.004 mPa·s. Further, the mass density in series [1] (283.15 K) is on record as 1507.3 ± 0.7 kg/m3; in series [1] (293.15 K), 1488.4 ± 0.7 kg/m3; in series [1] (303.15 K) it was 1469.4 ± 0.6 kg/m3; in series [1] (313.15 K), 1450 ± 0.6 kg/m3. Besides, in series [1] (303.15 K), the “vapor or sublimation pressure” value is given as 32.19 ± 0.33 kPa.
